The values that follow come from patent US8912184B1, “Therapeutic and diagnostic methods” (Alzheimer's Institute of America, Inc., priority 2010, dated 2014).

One data set relates to HCT116 cells. Description: 72 Hour HCT116 Cytotoxicity Assay (CellTiter-Glo). It counts as cell-based. The following applies: Homo sapiens, HCT-116, 72 h, 72 hours; read-out: HCT116 cell cytotoxicity IC50. (In ATP-based viability assays light output follows the ATP content of the culture.)
In another data set the test system is HCT-116 cell line. Nature of the data set: cells. The following applies: Homo sapiens, HCT-116, 72 h, read-out: EC50 of NA rescue from Exemplary Compound A-induced cytotoxicity. How it is done: (§1) In the second method, cells were exposed to varying concentrations of NA in the presence of a fixed, toxic concentration of Nampt1 inhibitor. This allows determination of the relative effectiveness of NA at rescuing Nampt1 inhibitor-mediated cytotoxicity across cell lines. For this method, the following modifications were made to the standard cytotoxicity assay. Twenty four hours after cell were plated, a serial dilution of nicotinic acid, dissolved in water, was generated and added to the cells. […] Cell viability was then assessed at 72 h. Cell viability (after normalization to controls lacking Nampt1 inhibitor) was plotted against NA concentration.
(§2) In cases where the high asymptote of the NA rescue curve corresponded to 75% or less recovery in cell viability, the cell line was deemed to be partially rescued.
(§3) In the first set of experiments, two different cancer cell lines were employed.

The test system of another data set is MIA PaCa2 cell line. Nature of the data set: cells. The following applies: Homo sapiens, MIA PaCa-2, 72 h, read-out: EC50 of NA rescue from Exemplary Compound A-induced cytotoxicity. How it is done: as §1, §2, §3
The format of data set [1] is in vivo. The following applies: mice, oral NA 3 g/kg 1 h prior or up to 8 h following 300 mg/kg Exemplary Compound A.

SMILES strings stand for the structures.

Experimental for HCT116 cells: HCT116 cells were seeded in 96 well plates (Greiner Bio-One, Monroe, N.C.) and allowed to settle overnight. Test compound dissolved in dimethyl sulfoxide (DMSO) was added and drug incubation proceeded for 72 hours. […] After 72 hour, 50 μL of CellTiter-Glo Luminescent Cell Viability Assay reagent (Promega Corporation, Madison, Wis.) was added to cells in 200 μL of cellular media. After a proscribed incubation period, luminescence was measured using a TopCount NXT plate reader (PerkinElmer, Waltham, Mass.).

Usually IC50 stands for the point on the concentration scale where inhibition reaches its midpoint. For the molecule `O=C(NCCCNS(=O)(=O)c1ccccc1-c1ccccc1)NCc1cccnc1` [Example 152, N-(3-{[(pyridin-3-ylmethyl)carbamoyl]a-mino}propyl)biphenyl-2-sulfonamide], the IC50 in the data set with HCT116 cells is about 55 nM. In general, EC50 refers to the concentration needed to bring the measured effect to its halfway point. Regarding `O=C(O)c1cccnc1` [NA, nicotinic acid], the 50% effective concentration (EC50) was 400 nM in the data set on HCT-116 cell line and over 10000 nM in the data set on MIA PaCa2 cell line. For the same molecule, the “effect of NA on Exemplary Compound A lethality” value in data set [1] is “completely blocked”. Regarding `N#C/N=C(/NCc1ccc(COc2ccccc2-c2ccccc2)cc1)Nc1ccncc1` [Example 605, 1-{4-[(Biphenyl-2-yloxy)methyl]benzyl}-2-cyano-3-pyridin-4-ylguanidine], the IC50 in the data set on HCT116 cells was about 1.1 nM. Regarding `O=C(NCc1cccnc1)Nc1ccc(C[S+]([O-])c2ccccc2-c2ccccc2)cc1` (stereo not shown) [Example 210, 1-{4-[(biphenyl-2-ylsulfinyl)meth-yl]phenyl}-3-(pyridin-3-ylmethyl)urea], in the data set with HCT116 cells, the IC50 is about 39 nM. Consider `O=C(NCc1cccnc1)Nc1ccc(COc2cc(C(F)(F)F)ccc2Cl)cc1` [Example 164, 1-(4-{[2-Chloro-5-(trifluorometh-yl)phenoxy]meth-yl}phenyl)-3-(pyridin-3-ylmethyl)urea], for which the IC50 in the data set with HCT116 cells was about 74 nM.
